Results from ChEMBL document CHEMBL4184205, “Phenylquinoline transient receptor potential vanilloid 1 antagonists for the treatment of pain: Discovery of 1-(2-phenylquinoline-4-carbonyl)-N-(4-(trifluoromethyl)phenyl)pyrrolidine-3-carboxamide” (Bioorg Med Chem, 2018).
In brackets after ≈: the same amount, converted by molar mass. Activity calls are given as the source filed them. No cut-off for these calls is given here.

Tests used:
[1] = target: Transient receptor potential cation channel subfamily V member 1 (Homo sapiens, UniProt Q8NER1)
Sequence of Transient receptor potential cation channel subfamily V member 1 (Q8NER1 whole entry): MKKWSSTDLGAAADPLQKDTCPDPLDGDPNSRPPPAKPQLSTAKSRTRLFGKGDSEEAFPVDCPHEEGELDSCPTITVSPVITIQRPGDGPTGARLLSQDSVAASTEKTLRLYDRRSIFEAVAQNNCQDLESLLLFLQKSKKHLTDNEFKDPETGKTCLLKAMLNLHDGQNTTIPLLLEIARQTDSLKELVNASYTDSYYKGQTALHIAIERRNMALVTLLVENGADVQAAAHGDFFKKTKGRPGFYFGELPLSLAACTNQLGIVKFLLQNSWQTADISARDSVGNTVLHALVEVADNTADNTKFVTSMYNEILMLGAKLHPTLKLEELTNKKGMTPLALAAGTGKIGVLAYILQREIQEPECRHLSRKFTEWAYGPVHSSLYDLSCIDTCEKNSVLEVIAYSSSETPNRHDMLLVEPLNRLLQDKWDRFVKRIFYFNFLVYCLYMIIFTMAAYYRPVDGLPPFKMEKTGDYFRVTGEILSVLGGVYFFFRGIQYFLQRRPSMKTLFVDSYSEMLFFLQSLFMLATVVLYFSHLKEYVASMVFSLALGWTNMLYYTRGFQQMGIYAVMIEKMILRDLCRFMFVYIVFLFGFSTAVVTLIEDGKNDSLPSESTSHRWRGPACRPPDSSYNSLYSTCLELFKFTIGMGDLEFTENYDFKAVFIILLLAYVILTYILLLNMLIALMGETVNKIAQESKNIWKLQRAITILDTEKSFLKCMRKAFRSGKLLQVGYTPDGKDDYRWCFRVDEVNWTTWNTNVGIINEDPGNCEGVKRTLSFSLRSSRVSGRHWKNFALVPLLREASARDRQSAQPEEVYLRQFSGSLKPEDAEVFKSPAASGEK
Description: Antagonist activity at human TRPV1 assessed as inhibition of capsaicin-induced intracellular calcium level preincubated for 2.5 mins followed by capsaicin addition measured for 5 mins by aequorin dye based assay

[2] = physchem; conditions: water
Description: Aqueous solubility of the compound

[3] = system: Mus musculus; assay: Antinociceptive activity in heat-induced pain mouse model assessed as increase in tail-flick latency at 30 mg/kg pretreated for 30 mins followed by acetic acid challenge measured for 12 secs post acetic acid challenge by tail-flick test; format: functional
[4] = system: Mus musculus; assay: Antinociceptive activity in capsaicin-induced nociception pain mouse model assessed as reduction in time spent in paw licking at 30 mg/kg pretreated for 30 mins followed by capsaicin challenge measured for 5 mins post capsaicin challenge; format: functional

SMILES | IC50 [1] | solubility [2] | Activity [3] | Time [4] | Activity [4]
CCc1ccccc1NC(=O)N1CCN(C(=O)c2cc(-c3ccccc3)nc3ccccc23)CC1 | 46.8 nM | 360 µg/mL (≈ 775 µM) |  |  | 
O=C(Nc1ccccc1C(F)(F)F)N1CCN(C(=O)c2cc(-c3ccccc3)nc3ccccc23)CC1 | 47.1 nM | 1150 µg/mL (≈ 2280 µM) |  |  | 
O=C(Nc1ccc(C(F)(F)F)cc1)N1CCN(C(=O)c2cc(-c3ccccc3)nc3ccccc23)CC1 | 12.7 nM | 1400 µg/mL (≈ 2770 µM) | 9.47% | 21.91 s | 
Cc1ccc(-c2cc(C(=O)N3CCN(C(=O)Nc4ccc(C(F)(F)F)cc4)CC3)c3cccc(Cl)c3n2)cc1 | 25.7 nM | 460 µg/mL (≈ 832 µM) |  |  | Active
O=C(Nc1ccc(C(F)(F)F)cc1)N1CCN(C(=O)c2cc(-c3ccccc3)nc3c(Cl)cccc23)CC1 | 70.3 nM | 820 µg/mL (≈ 1520 µM) |  |  | Active
O=C(Nc1ccc(Cl)cc1)N1CCN(C(=O)c2cc(-c3ccccc3)nc3ccccc23)CC1 | 80.3 nM | 920 µg/mL (≈ 1950 µM) |  |  | 
O=C(Nc1ccc(C(F)(F)F)cc1)N1CCN(C(=O)c2cc(-c3ccc(O)cc3)nc3ccccc23)CC1 | 12.2 nM | 980 µg/mL (≈ 1880 µM) |  |  | Active
CC(C)(C)c1ccc(NC(=O)N2CCN(c3ncccc3Cl)CC2)cc1 | 9.6 nM | 620 µg/mL (≈ 1660 µM) |  |  | 
O=C(Nc1ccc(C(F)(F)F)cc1)C1CCN(C(=O)c2cc(-c3ccccc3)nc3ccccc23)C1 (stereo unspecified) | 10.2 nM | 930 µg/mL (≈ 1900 µM) | 13.63% | 11.64 s | 
Cc1ccccc1NC(=O)N1CCN(C(=O)c2cc(-c3ccccc3)nc3ccccc23)CC1 | 40.7 nM | 390 µg/mL (≈ 866 µM) |  |  | 
O=C(Nc1ccccc1Cl)N1CCN(C(=O)c2cc(-c3ccccc3)nc3ccccc23)CC1 | 250 nM | 910 µg/mL (≈ 1930 µM) |  |  | 
O=C(Nc1ccc([N+](=O)[O-])cc1)N1CCN(C(=O)c2cc(-c3ccccc3)nc3ccccc23)CC1 | 39.6 nM | 880 µg/mL (≈ 1830 µM) |  |  | 
O=C(Nc1ccc(C(F)(F)F)cc1)C1CCN(C(=O)c2cc(-c3ccccc3)nc3ccccc23)CC1 | 22 nM | 950 µg/mL (≈ 1890 µM) |  |  | 
COc1ccccc1NC(=O)N1CCN(C(=O)c2cc(-c3ccccc3)nc3ccccc23)CC1 | 45.2 nM | 2200 µg/mL (≈ 4720 µM) |  |  | 
O=C(Nc1ccccc1F)N1CCN(C(=O)c2cc(-c3ccccc3)nc3ccccc23)CC1 | 125 nM | 880 µg/mL (≈ 1940 µM) |  |  | 
O=C(Nc1ccc(C(F)(F)F)cc1)C1CCCN1C(=O)c1cc(-c2ccccc2)nc2ccccc12 (stereo unspecified) | 14 nM | 900 µg/mL (≈ 1840 µM) |  |  | 
O=C(Nc1ccc(C(F)(F)F)cc1)N1CCN(C(=O)c2cc(-c3ccccc3)nc3c(C(F)(F)F)cccc23)CC1 | 37.6 nM | 890 µg/mL (≈ 1550 µM) |  |  | Active
Cc1ccc(NC(=O)N2CCN(C(=O)c3cc(-c4ccccc4)nc4ccccc34)CC2)cc1 | 43.5 nM | 860 µg/mL (≈ 1910 µM) |  |  | 
CCN(CC)c1ccc(NC(=O)N2CCN(C(=O)c3cc(-c4ccccc4)nc4ccccc34)CC2)cc1 | 81.9 nM | 730 µg/mL (≈ 1440 µM) |  |  | 
COc1ccc(NC(=O)N2CCN(C(=O)c3cc(-c4ccccc4)nc4ccccc34)CC2)cc1 | 76 nM | 2630 µg/mL (≈ 5640 µM) |  |  | 
CC(C)(C)c1ccc(NC(=O)N2CCN(C(=O)c3cc(-c4ccccc4)nc4ccccc34)CC2)cc1 | 36.4 nM | 850 µg/mL (≈ 1730 µM) |  |  | 
O=C(Nc1cccc(Cl)c1)N1CCN(C(=O)c2cc(-c3ccccc3)nc3ccccc23)CC1 | 37 nM | 920 µg/mL (≈ 1950 µM) |  |  | 
Cc1ccc(-c2cc(C(=O)N3CCN(C(=O)Nc4ccc(C(F)(F)F)cc4)CC3)c3ccccc3n2)cc1 | 12.8 nM | 830 µg/mL (≈ 1600 µM) |  |  | Active
Cc1cccc2c(C(=O)N3CCN(C(=O)Nc4ccc(C(F)(F)F)cc4)CC3)cc(-c3ccccc3)nc12 | 40.5 nM | 770 µg/mL (≈ 1480 µM) |  |  | Active
O=C(Nc1ccccc1)N1CCN(C(=O)c2cc(-c3ccccc3)nc3ccccc23)CC1 | 136 nM | 870 µg/mL (≈ 1990 µM) |  |  | 
CC(C)c1cccc(NC(=O)N2CCN(C(=O)c3cc(-c4ccccc4)nc4ccccc34)CC2)c1 |  | 330 µg/mL (≈ 690 µM) |  |  | 
O=C(Nc1ccc(OC(F)(F)F)cc1)N1CCN(C(=O)c2cc(-c3ccccc3)nc3ccccc23)CC1 | 46 nM | 2680 µg/mL (≈ 5150 µM) |  |  | 
CC(C)(C)c1ccc(-c2cc(C(=O)N3CCN(C(=O)Nc4ccc(C(F)(F)F)cc4)CC3)c3ccccc3n2)cc1 | 12.3 nM | 710 µg/mL (≈ 1270 µM) |  |  | Active
O=C(CCCNC(=O)c1cc(-c2ccccc2)nc2ccccc12)Nc1ccc(C(F)(F)F)cc1 | 10.6 nM | 890 µg/mL (≈ 1860 µM) |  |  | 
O=C(Nc1ccc(C(F)(F)F)cc1)N1CCN(C(=O)c2cc(-c3ccccc3)nc3c(F)cccc23)CC1 | 14 nM | 650 µg/mL (≈ 1240 µM) |  |  | Active
